19 compounds from US8431525B2, “Coelenteramide analogs” (JNC Corporation, priority 2009, dated 2013) can be followed below.

Data set [1] is described as follows: Fluorescence spectrum and fluorescence quantum yield of CTMD analogs at 750 nM (Example 1). The format is physicochemical. Conditions: for Fluorescence quantum yield (PB) / λmax (PB)/nm: 67 mM phosphate buffer pH 7.4, 750 nM; for Fluorescence quantum yield (PB) / λmax (PB)/nm / λmax (MeOH)/nm / Fluorescence quantum yield (MeOH): 25° C., excited at 330 nm; for Fluorescence quantum yield (PB) / Fluorescence quantum yield (MeOH): relative to quinine sulfate 0.55; for λmax (PB)/nm / λmax (MeOH)/nm: fluorescence emission; for λmax (MeOH)/nm / Fluorescence quantum yield (MeOH): methanol, 750 nM; for fluorescence properties compared with known CTMD (c-4) or h-CTMD (c-13): from TABLE 1. The protocol: The fluorescence quantum yield of each CTMD analog synthesized was determined by the following procedure. The fluorescence spectrum was measured at 25° C. using a spectrofluorometer FP-6500 of JASCO (JASCO Corp., Tokyo). Specifically, the CTMD analog was dissolved in methanol (MeOH) or in 67 mM phosphate buffer (PB) (pH 7.4) at a final concentration of 750 nM using a quartz cell (light path length of 10 mm). Measurement was performed 3 times at the excited wavelength of 330 nm, emission/excitation band width of 3 nm, response of 0.5 second and scanning rate of 100 nm/min. The average was taken as the fluorescence spectrum of the compound. The fluorescence quantum yield was determined after the spectrum was corrected.
Quinine sulfate was used as a standard for determining the fluorescence quantum yield. After quinine sulfate (Wako Pure Chemical Industries) was dissolved in 0.1N sulfuric acid aqueous solution, measurement was performed at the excitation light of 366 nm under the conditions for fluorescence measurements described above. The relative fluorescence quantum yield (fluorescence intensity) of the compound was calculated relative to the quantum yield of quinine sulfate as being 0.55.

Turning to `O=C(Cc1ccccc1)Nc1ncc(-c2ccc(O)cc2)nc1Cc1ccccc1` [c-13, 3-Benzyl-5-(4-hydroxyphenyl)-2-(phenylacetylamino)pyrazine], the melting point was in the range of 259 to 261 °C. In addition, in data set [1], the “Fluorescence quantum yield (PB)” value came to 0.003, the “λmax (PB)/nm” value is reported as 399 nm, the “λmax (MeOH)/nm” value is 424.5 nm and the “Fluorescence quantum yield (MeOH)” value is given as 0.010.

Compound `COc1ccc(-c2cnc(NC(=S)Cc3ccccc3)c(Cc3ccccc3)n2)cc1` [c-17, 3-Benzyl-5-(4-methoxyphenyl)-2-(phenylthioacetylamino)pyrazine] had a melting point of 45 to 47 °C. Further, in data set [1], the “Fluorescence quantum yield (PB)” value came to 0.003, the “λmax (PB)/nm” value is listed as 445 nm, the “λmax (MeOH)/nm” value came out at 417.5 nm and the “fluorescence properties compared with known CTMD (c-4) or h-CTMD (c-13)” value is reported as “different fluorescence properties”. In data set [1], the “Fluorescence quantum yield (MeOH)” value was 0.003.

For `CC(=O)Oc1ccc(-c2cnc(NS(=O)(=O)Cc3ccccc3)c(Cc3ccccc3)n2)cc1` [c-32, 5-(4-Acetoxyphenyl)-3-benzyl-2-(benzylsulfonylamino)pyrazine], the melting point is 240 to 241 °C. Further, in data set [1], the “Fluorescence quantum yield (PB)” value was determined as 0.239, the “λmax (PB)/nm” value was 420 nm, the “λmax (MeOH)/nm” value was 404 nm and the “fluorescence properties compared with known CTMD (c-4) or h-CTMD (c-13)” value is given as “different fluorescence properties”. The “Fluorescence quantum yield (MeOH)” value in data set [1] is reported as 0.234.

In the case of `O=S(=O)(Cc1ccccc1)Nc1ncc(-c2ccc(O)cc2)nc1Cc1ccccc1` [c-15, 3-Benzyl-2-benzylsulfonylamino-5-(4-hydroxyphenyl)pyrazine], the melting point was 144 to 147 °C (dec.). In addition, in data set [1], the “Fluorescence quantum yield (PB)” value was 0.137, the “λmax (PB)/nm” value is 435.5 nm, the “λmax (MeOH)/nm” value is on record as 429.5 nm and the “fluorescence properties compared with known CTMD (c-4) or h-CTMD (c-13)” value is on record as “different fluorescence properties”. The “Fluorescence quantum yield (MeOH)” value in data set [1] amounted to 0.066.

`CC(=O)Nc1ncc(-c2ccc(OC(C)=O)cc2)nc1Cc1ccccc1` [c-33, 5-(4-Acetoxyphenyl)-2-acetylamino-3-benzylpyrazine]: the melting point was 215.5 to 217 °C (dec.). Moreover, in data set [1], the “Fluorescence quantum yield (PB)” value is 0.154, the “λmax (PB)/nm” value is listed as 384 nm, the “λmax (MeOH)/nm” value amounted to 375 nm and the “Fluorescence quantum yield (MeOH)” value was 0.085.

For `Cc1ccc(S(=O)(=O)Nc2ncc(-c3ccc(O)cc3)nc2Cc2ccccc2)cc1` [c-35, 3-Benzyl-5-(4-hydroxyphenyl)-2-[(4-methylphenyl)sulfonylamino]pyrazine], the melting point was 181 to 182.5 °C. In addition, in data set [1], the “Fluorescence quantum yield (PB)” value is 0.107, the “λmax (PB)/nm” value is 435 nm, the “λmax (MeOH)/nm” value was 430.5 nm and the “fluorescence properties compared with known CTMD (c-4) or h-CTMD (c-13)” value is listed as “different fluorescence properties”. Also, the “Fluorescence quantum yield (MeOH)” value in data set [1] is listed as 0.069.

As to `COc1ccc(-c2cnc(NC(C)=O)c(Cc3ccccc3)n2)cc1` [c-24, 2-Acetylamino-3-benzyl-5-(4-methoxyphenyl)pyrazine], in data set [1], the “Fluorescence quantum yield (PB)” value was 0.199, the “λmax (PB)/nm” value is listed as 450.5 nm, the “λmax (MeOH)/nm” value was 415.5 nm and the “Fluorescence quantum yield (MeOH)” value was 0.345.

In turn, `COc1ccc(-c2cnc(N(S(=O)(=O)Cc3ccccc3)S(=O)(=O)Cc3ccccc3)c(Cc3ccccc3)n2)cc1` [c-21, 3-Benzyl-2-bis(benzylsulfonyl)amino-5-(4-methoxyphenyl)pyrazine] displayed a melting point of 78 to 80 °C. For the same compound, in data set [1], the “Fluorescence quantum yield (PB)” value was 0.059, the “λmax (PB)/nm” value was found to be 421.5 nm, the “λmax (MeOH)/nm” value is reported as 417 nm and the “fluorescence properties compared with known CTMD (c-4) or h-CTMD (c-13)” value is “different fluorescence properties”. In addition, in data set [1], the “Fluorescence quantum yield (MeOH)” value was found to be 0.303.

The compound `CC(=O)Oc1ccc(-c2cnc(NC(=O)Cc3ccccc3)c(Cc3ccccc3)n2)cc1` [c-30, 5-(4-Acetoxyphenyl)-3-benzyl-2-(phenylacetylamino)pyrazine] gave a melting point of 228 to 231 °C. Further, in data set [1], the “Fluorescence quantum yield (PB)” value turned out to be 0.040, the “λmax (PB)/nm” value is on record as 391 nm, the “λmax (MeOH)/nm” value worked out at 373.5 nm and the “Fluorescence quantum yield (MeOH)” value is 0.008.

In the case of `CC(=O)Oc1ccc(-c2cnc(N(S(=O)(=O)c3ccc([N+](=O)[O-])cc3)S(=O)(=O)c3ccc([N+](=O)[O-])cc3)c(Cc3ccccc3)n2)cc1` [c-40, 5-(4-Acetoxyphenyl)-3-benzyl-2-bis(4-nitrophenylsulfonyl)aminopyrazine], the melting point was 227 to 229.5 °C (dec.). In data set [1], the “Fluorescence quantum yield (PB)” value amounted to 0.021, the “λmax (PB)/nm” value was 415 nm, the “λmax (MeOH)/nm” value came out at 407.5 nm and the “fluorescence properties compared with known CTMD (c-4) or h-CTMD (c-13)” value was “different fluorescence properties”. The “Fluorescence quantum yield (MeOH)” value in data set [1] is 0.004.

The compound `CC(=O)Oc1ccc(-c2cnc(N(S(=O)(=O)Cc3ccccc3)S(=O)(=O)Cc3ccccc3)c(Cc3ccccc3)n2)cc1` [c-20, 5-(4-Acetoxyphenyl)-3-benzyl-2-bis(benzylsulfonyl)aminopyrazine] came in with a melting point of 84 to 86.5 °C. For the same compound, in data set [1], the “Fluorescence quantum yield (PB)” value is on record as 0.026, the “λmax (PB)/nm” value was found to be 420 nm, the “λmax (MeOH)/nm” value amounted to 399.5 nm and the “fluorescence properties compared with known CTMD (c-4) or h-CTMD (c-13)” value was “different fluorescence properties”. Besides, the “Fluorescence quantum yield (MeOH)” value in data set [1] is given as 0.185.

For `O=S(=O)(Cc1ccccc1)N(c1ncc(-c2ccccc2)nc1Cc1ccccc1)S(=O)(=O)Cc1ccccc1` [c-42, 3-Benzyl-2-bis(benzylsulfonyl)amino-5-phenylpyrazine], the melting point is 71.5 to 74.5 °C. Further, in data set [1], the “Fluorescence quantum yield (PB)” value is 0.011, the “λmax (PB)/nm” value was found to be 420.5 nm, the “λmax (MeOH)/nm” value was determined as 398.5 nm and the “fluorescence properties compared with known CTMD (c-4) or h-CTMD (c-13)” value is recorded as “different fluorescence properties”. The “Fluorescence quantum yield (MeOH)” value in data set [1] amounted to 0.180.

`O=S(=O)(Cc1ccccc1)Nc1ncc(-c2ccccc2)nc1Cc1ccccc1` [c-37, 3-Benzyl-2-benzylsulfonylamino-5-phenylpyrazine]: the melting point was 207 to 208.5 °C. In addition, in data set [1], the “Fluorescence quantum yield (PB)” value was determined as 0.227, the “λmax (PB)/nm” value stood at 419.5 nm, the “λmax (MeOH)/nm” value was 402.5 nm and the “fluorescence properties compared with known CTMD (c-4) or h-CTMD (c-13)” value is reported as “different fluorescence properties”. Moreover, the “Fluorescence quantum yield (MeOH)” value in data set [1] is listed as 0.196.

`CC(=O)Oc1ccc(-c2cnc(N(S(=O)(=O)Cc3ccc(I)cc3)S(=O)(=O)Cc3ccc(I)cc3)c(Cc3ccccc3)n2)cc1` [c-46, 5-(4-Acetoxyphenyl)-3-benzyl-2-bis(4-iodobenzylsulfonyl)aminopyrazine] displayed a melting point of 166 to 167 °C.

With `COc1ccc(-c2cnc(NC(=O)Cc3ccccc3)c(Cc3ccccc3)n2)cc1` [c-16, 3-Benzyl-5-(4-methoxyphenyl)-2-(phenylacetylamino)pyrazine], the melting point was 197.5 to 202 °C. In data set [1], the “Fluorescence quantum yield (PB)” value worked out at 0.181, the “λmax (PB)/nm” value stood at 450 nm, the “λmax (MeOH)/nm” value is reported as 415 nm and the “Fluorescence quantum yield (MeOH)” value turned out to be 0.342.

As to `CC(=O)Oc1ccc(-c2cnc(N)c(Cc3ccccc3)n2)cc1` [c-19, 5-(4-Acetoxyphenyl)-2-amino-3-benzylpyrazine], the melting point lay within 183.5 to 185.5 °C.

With `CS(=O)(=O)Nc1ncc(-c2ccc(O)cc2)nc1Cc1ccccc1` [c-34, 3-Benzyl-5-(4-hydroxyphenyl)-2-(methanesulfonylamino)pyrazine], in data set [1], the “Fluorescence quantum yield (PB)” value is given as 0.096, the “λmax (PB)/nm” value is 437 nm, the “λmax (MeOH)/nm” value was 429 nm and the “fluorescence properties compared with known CTMD (c-4) or h-CTMD (c-13)” value is on record as “different fluorescence properties”. Also, in data set [1], the “Fluorescence quantum yield (MeOH)” value was determined as 0.056.

`CC(=O)Oc1ccc(-c2cnc(N(S(C)(=O)=O)S(C)(=O)=O)c(Cc3ccccc3)n2)cc1` [c-39, 5-(4-Acetoxyphenyl)-3-benzyl-2-bis(methanesulfonyl)aminopyrazine] came in with a melting point of 165.5 to 167 °C. For the same compound, in data set [1], the “Fluorescence quantum yield (PB)” value was 0.096, the “λmax (PB)/nm” value was found to be 419 nm, the “λmax (MeOH)/nm” value is reported as 381.5 nm and the “fluorescence properties compared with known CTMD (c-4) or h-CTMD (c-13)” value is given as “different fluorescence properties”. For the same compound, the “Fluorescence quantum yield (MeOH)” value in data set [1] is 0.079.

On to `CC(=O)Oc1ccc(CC(=O)Nc2ncc(-c3ccc(OC(C)=O)cc3)nc2Cc2ccccc2)cc1` [c-29, 5-(4-Acetoxyphenyl)-2-(4-acetoxyphenyl)acetylamino-3-benzylpyrazine], for which the melting point was 225 to 227 °C. Also, in data set [1], the “Fluorescence quantum yield (PB)” value was 0.029, the “λmax (PB)/nm” value turned out to be 386.5 nm, the “λmax (MeOH)/nm” value amounted to 376.5 nm and the “Fluorescence quantum yield (MeOH)” value is recorded as 0.086.

In general, melting point refers to the temperature, or range, at which the solid turns liquid.
